Measurements from patent US20230234948A1, “CYCLOPROPYL DIHYDROQUINOLINE SULFONAMIDE COMPOUNDS” (AMGEN INC., priority 2020, published 2023).

Columns and labels:
CYP3A4 = assay: Human CYP 3A4 induction assay (mRNA, cryopreserved human hepatocytes); assay type: in vitro ADME; settings: 10 uM test compound, 72 hours, percent of control (rifampin positive control)
Protocol: Human CYP 3A4 Induction Assay
Cryopreserved human hepatocytes were seeded in 96-well collagen coated plates at 70,000 cells per well in hepatocyte plating media (HPM, final concentrations: 1× Dulbecco's Modified Eagle's Medium, 0.1 μM dexamethasone, 10% fetal bovine serum, 1×ITS, 1×PSG) followed by incubation at 37° C. under 5% CO2 and 90% relative humidity for 2 days to allow hepatocytes to form a confluent layer. On Day 3, hepatocytes were treated with either test compound or rifampin (20 μM, positive control for CYP3A induction) prepared in hepatocyte incubation media ((HIM, final concentrations: 1× William's Medium E, 0.1 μM dexamethasone, 1×ITS, 1×PSG). Treatment was performed for 72 hours with either 2 concentrations (2 μM or 10 μM) or a range of concentrations (0.001 μM to 100 μM) of the test compound to obtain full dose-response curve. Fresh media containing the relevant concentrations of the test compound was replaced every day until the samples were processed. After 72 hours of incubation, samples were processed for mRNA analysis using bDNA technology using manufacturer's instructions (Affymetrix, Fremont, Calif.). Cell viability was tested at the end of the experiment using MTT assay kit (Roche Diagnostics, Basel, Switzerland). Data was analyzed and presented as percent of control (POC) and Emax and EC50 obtained when appropriate according to guidance from Center for Drug Evaluation and Research (CDER), 2006, Guidance for Industry, Drug Interaction Studies—Study Design, Data Analysis, and Implications for Dosing and Labeling.
Cryopreserved human hepatocytes were seeded in 96-well collagen coated plates at 70,000 cells per well in hepatocyte plating media (HPM, final concentrations: 1× Dulbecco's Modified Eagle's Medium, 0.1 μM dexamethasone, 10% fetal bovine serum, 1×ITS, 1×PSG) followed by incubation at 37° C. under 5% CO2 and 90% relative humidity for 2 days to allow hepatocytes to form a confluent layer. On Day 3, hepatocytes were treated with either test compound or rifampin (20 μM, positive control for CYP3A induction) prepared in hepatocyte incubation media ((HIM, final concentrations: 1× William's Medium E, 0.1 μM dexamethasone, 1×ITS, 1×PSG). Treatment was performed for 72 hours with either 2 concentrations (2 μM or 10 μM) or a range of concentrations (0.001 μM to 100 μM) of the test compound to obtain full dose-response curve. Fresh media containing the relevant concentrations of the test compound was replaced every day until the samples were processed. After 72 hours of incubation, samples were processed for mRNA analysis using bDNA technology using manufacturer's instructions (Affymetrix, Fremont, Calif.). Cell viability was tested at the end of the experiment using MTT assay kit (Roche Diagnostics, Basel, Switzerland). Data was analyzed and presented as percent of control (POC) and Emax and EC50 obtained when appropriate, as described in Halladay, J. et al, 2012, An “all-inclusive” 96-well cytochrome P450 induction method: Measuring enzyme activity, mRNA levels, protein levels, and cytotoxicity from one well using cryopreserved human hepatocytes, Pharmacological and Toxicological Methods, 66:270-275.
The cytochrome P450 (CYP) is a well-known superfamily of enzymes that are responsible for the oxidative and reductive metabolic transformation of medications used in clinical practice. In addition, the CYP enzymes are commonly associated with causing many clinically relevant drug-drug interactions. […]

Human NaV1.7 = molecular target: T1, Human NaV1.7 (Homo sapiens, UniProt Q15858); assay: Ionworks Barracuda (IWB) automated patch clamp assay; assay type: cell-based; settings: human NaV1.7 in HEK cells, population patch-clamp, state- and use-dependent voltage protocol; read-out: hNaV1.7 IWB-U IC50
T1 construct: expressed in transfected cells; host or cells: Spiking HEK cells (without Kir2.1 transfection)
T1 sequence (Q15858 whole entry): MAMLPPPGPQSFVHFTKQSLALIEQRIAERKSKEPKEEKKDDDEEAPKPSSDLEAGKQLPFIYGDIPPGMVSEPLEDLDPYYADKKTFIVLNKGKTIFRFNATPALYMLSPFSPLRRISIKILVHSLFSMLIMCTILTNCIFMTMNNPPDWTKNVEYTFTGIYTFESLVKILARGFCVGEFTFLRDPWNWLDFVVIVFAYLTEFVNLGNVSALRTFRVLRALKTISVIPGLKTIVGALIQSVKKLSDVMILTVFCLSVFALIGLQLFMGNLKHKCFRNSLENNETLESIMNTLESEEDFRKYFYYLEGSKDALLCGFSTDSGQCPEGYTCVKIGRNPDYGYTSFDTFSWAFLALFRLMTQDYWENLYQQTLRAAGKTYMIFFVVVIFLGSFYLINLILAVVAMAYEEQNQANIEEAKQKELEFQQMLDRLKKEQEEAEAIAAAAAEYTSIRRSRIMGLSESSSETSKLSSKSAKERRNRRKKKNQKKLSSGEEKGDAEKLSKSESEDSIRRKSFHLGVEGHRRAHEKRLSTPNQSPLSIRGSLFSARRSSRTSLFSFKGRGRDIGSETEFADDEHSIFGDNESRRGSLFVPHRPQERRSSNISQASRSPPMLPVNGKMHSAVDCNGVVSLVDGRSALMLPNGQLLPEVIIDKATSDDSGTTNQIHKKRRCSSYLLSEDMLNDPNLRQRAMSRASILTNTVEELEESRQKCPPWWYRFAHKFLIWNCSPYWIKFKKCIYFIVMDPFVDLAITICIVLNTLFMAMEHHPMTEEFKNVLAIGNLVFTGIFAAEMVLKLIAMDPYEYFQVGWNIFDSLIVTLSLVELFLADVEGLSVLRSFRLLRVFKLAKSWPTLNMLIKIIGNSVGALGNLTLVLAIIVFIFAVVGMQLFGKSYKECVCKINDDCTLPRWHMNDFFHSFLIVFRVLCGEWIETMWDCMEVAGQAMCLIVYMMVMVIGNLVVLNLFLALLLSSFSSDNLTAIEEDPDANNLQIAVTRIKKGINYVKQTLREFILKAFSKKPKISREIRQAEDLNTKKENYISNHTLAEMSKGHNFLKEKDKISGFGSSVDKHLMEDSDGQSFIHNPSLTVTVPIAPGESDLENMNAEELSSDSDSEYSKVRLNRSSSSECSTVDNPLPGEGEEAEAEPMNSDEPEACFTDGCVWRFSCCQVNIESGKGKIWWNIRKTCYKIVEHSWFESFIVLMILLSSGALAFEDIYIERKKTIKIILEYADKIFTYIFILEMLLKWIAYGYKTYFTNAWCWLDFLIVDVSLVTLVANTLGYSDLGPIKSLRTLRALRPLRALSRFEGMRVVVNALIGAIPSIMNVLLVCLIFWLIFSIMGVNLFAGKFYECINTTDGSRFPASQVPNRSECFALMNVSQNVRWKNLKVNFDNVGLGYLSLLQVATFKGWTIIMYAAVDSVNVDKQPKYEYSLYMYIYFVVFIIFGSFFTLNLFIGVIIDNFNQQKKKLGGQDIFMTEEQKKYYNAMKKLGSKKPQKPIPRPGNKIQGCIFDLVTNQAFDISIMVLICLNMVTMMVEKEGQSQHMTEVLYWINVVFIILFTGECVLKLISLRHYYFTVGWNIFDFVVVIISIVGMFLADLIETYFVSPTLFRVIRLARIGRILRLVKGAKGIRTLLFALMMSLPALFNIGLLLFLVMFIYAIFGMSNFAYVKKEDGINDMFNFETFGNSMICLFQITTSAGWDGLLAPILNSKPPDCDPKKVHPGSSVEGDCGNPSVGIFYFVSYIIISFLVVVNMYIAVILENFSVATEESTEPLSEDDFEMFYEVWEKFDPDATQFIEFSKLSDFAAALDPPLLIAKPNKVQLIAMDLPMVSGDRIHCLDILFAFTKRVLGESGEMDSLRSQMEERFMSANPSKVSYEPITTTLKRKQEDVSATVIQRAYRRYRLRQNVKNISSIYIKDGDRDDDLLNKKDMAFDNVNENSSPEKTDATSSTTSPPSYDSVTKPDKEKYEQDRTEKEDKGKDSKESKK
Protocol: Ionworks Barracuda (IWB) Automated Patch Clamp Assay (Same Protocol for Both Human and Mouse)
Human NaV1.7 currents were recorded in population patch-clamp mode with the IWB automated electrophysiology system (Molecular Devices, LLC, Sunnyvale, Calif.). Spiking HEK cells (without Kir2.1 transfection) were cultured and prepared for recordings as previously described for IonWorks Quattro testing^1. The external solution consisted of the following (in mM): NaCl 140, KCl 5, CaCl2 2, MgCl2 1, HEPES 10, and glucose 11, pH 7.4, with N-methyl-D-glucamine at 320 mOsmol. […] From a holding potential of −110 mV, currents were elicited by a train of 26 depolarizations of 150 ms duration to −20 mV at a frequency of 5 Hz. Cells were then clamped to −20 mV for a period of 4 minutes in the presence of a single concentration of test compound. Following this compound incubation period, cells were clamped to −110 mV for three seconds to recover unbound channels and put through the same 26 pulse voltage protocol as above. Peak inward current during the 26th pulse to −20 mV in the presence of compound was divided by the peak inward current evoked by the 26th pulse to −20 mV in the absence of compound to determine percent inhibition. Concentration-response curves of percent inhibition as a function of concentration were generated to calculate IC50 values as described in Kornecook, T. J.; Yin, R.; Altmann, S.; et al. Pharmacologic Characterization of AMG8379, a Potent and Selective Small Molecule Sulfonamide Antagonist of the Voltage-Gated Sodium Channel NaV1. 7.
The potency of the compounds of the present invention were evaluated on human NaV1.7 channels using the above described IonWorks Barracuda automated electrophysiology platform that evaluates the ability of compounds to block sodium conductance through NaV1.7 channels. A voltage-protocol that prosecutes both state-dependent as well as use-dependent inhibition was used as these modes of action are thought to be more relevant for the native state of NaV1.7 channels in pain sensing neurons in vivo.

Molecule | CYP3A4 mRNA Induct Hu 10 uM POC (CYP3A4) [%] | IC50 (Human NaV1.7) [nM]
COc1cc([C@H]2C[C@@H]2C(F)(F)F)ccc1-n1c(=O)ccc2cc(S(=O)(=O)Nc3ccon3)ccc21 (single isomer, unassigned) [Example 39] | 38.35 | 8
(P)-1-(5-fluoro-2-methoxy-4-((1S,2S)-2-((trifluoromethoxy)methyl)cyclopropyl)phenyl)-N-(isoxazol-3-yl)-2-oxo-1,2-dihydroquinoline-6-sulfonamide [Example 33] | 139.9 | 4
COc1cc([C@@H]2C[C@H]2C(F)(F)F)ccc1-n1c(=O)ccc2cc(S(=O)(=O)Nc3ccon3)ccc21 (single isomer, unassigned) [Example 38] | 29.06 | 10
